These results are taken from PMC2655357 (The Febs Journal, 2008).

The assay addresses AaIspE (Aquifex aeolicus, UniProt O67060). The assay can be described thus: crystal structure. In kind it is binding. As to conditions: co-crystallized with 4 mM AMP-PNP and 4 mM CDP; substrate (CDPME) site.

AaIspE, sequence (O67060 whole entry): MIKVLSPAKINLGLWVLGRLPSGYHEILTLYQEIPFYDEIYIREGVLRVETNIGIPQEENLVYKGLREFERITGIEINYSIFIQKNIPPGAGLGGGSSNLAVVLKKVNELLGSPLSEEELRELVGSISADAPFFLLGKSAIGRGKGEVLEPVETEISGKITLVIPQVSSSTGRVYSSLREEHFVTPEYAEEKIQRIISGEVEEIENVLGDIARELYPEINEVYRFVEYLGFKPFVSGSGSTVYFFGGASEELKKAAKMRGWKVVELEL

Turning to `Nc1ccn([C@@H]2O[C@H](COP(=O)(O)OP(=O)(O)O)[C@@H](O)[C@H]2O)c(=O)n1` [CDP], the “crystal structure (complex I, 2.1 Å)” value is “In complex I, CDP displays a single conformation in molecule A and three in molecule B”.
